In patent US20080269267A1, “KINASE INHIBITORS USEFUL FOR THE TREATMENT OF MYLEOPROLIFIC DISEASES AND OTHER PROLIFERATIVE DISEASES” (Deciphera Pharmaceuticals, LLC, priority 2007, published 2008):
Where a chain is given by its changes, count along the chain named. Counter-ions that a name gives are not always drawn.

Legend:
[1] = molecular target: T1, C-Met kinase (SEQ ID NO:10) (Homo sapiens, UniProt P08581); test: C-Met kinase assay (pyruvate kinase/lactate dehydrogenase coupled); details: 0.5 h preincubation at 22° C., ATP 100 μM; read-out: c-Met Enzyme Assay, biochemical IC50
T1 construct: purchased Invitrogen PV3143
T1 sequence (P08581 with tags, fused parts or gaps): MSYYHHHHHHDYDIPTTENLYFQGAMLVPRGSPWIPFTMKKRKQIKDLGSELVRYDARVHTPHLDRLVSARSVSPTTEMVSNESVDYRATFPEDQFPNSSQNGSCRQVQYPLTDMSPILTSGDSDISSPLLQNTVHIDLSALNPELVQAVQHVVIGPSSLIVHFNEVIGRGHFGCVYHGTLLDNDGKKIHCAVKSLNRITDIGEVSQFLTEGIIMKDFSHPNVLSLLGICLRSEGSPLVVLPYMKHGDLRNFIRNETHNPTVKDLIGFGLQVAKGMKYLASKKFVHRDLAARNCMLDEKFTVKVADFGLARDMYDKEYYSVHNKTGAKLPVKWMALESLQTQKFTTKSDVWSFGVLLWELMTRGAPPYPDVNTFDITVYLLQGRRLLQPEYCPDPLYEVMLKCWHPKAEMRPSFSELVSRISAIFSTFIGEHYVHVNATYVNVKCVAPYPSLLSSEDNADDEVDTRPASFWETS
Description: C-Met Kinase (SEQ ID NO:10) Assay
Activity of C-Met kinase (SEQ ID NO:10) was determined by following the production of ADP from the kinase reaction through coupling with the pyruvate kinase/lactate dehydrogenase system (e.g., Schindler, et al. Science (2000) 289, 1938-1942). In this assay, the oxidation of NADH (thus the decrease at A340 nm) was continuously monitored spectrophometrically. The reaction mixture (100 μl) contained C-Met (c-Met residues; 956-1390, from Invitrogen, catalogue #PV3143, 6 nM), polyE4Y (1 mg/ml), MgCl2 (10 mM), pyruvate kinase (4 units), lactate dehydrogenase (0.7 units), phosphoenol pyruvate (1 mM), and NADH (0.28 mM) in 90 mM Tris buffer containing 0.25 mM DTT, 0.2% octyl-glucoside and 1% DMSO, pH 7.5. Test compounds were incubated with C-Met (SEQ ID NO:10) and other reaction reagents at 22° C. for 0.5 h before ATP (100 μM) was added to start the reaction. The absorption at 340 n=was monitored continuously for 2 hours at 30° C. on Polarstar Optima plate reader (BMG). The reaction rate was calculated using the 1.0 to 2.0 h time frame. Percent inhibition was obtained by comparison of reaction rate with that of a control (i.e. with no test compound). IC50 values were calculated from a series of percent inhibition values determined at a range of inhibitor concentrations using software routines as implemented in the GraphPad Prism software package.

[2] = molecular target: B-Raf(V600E) kinase (SEQ ID NO:11) (Homo sapiens, UniProt P15056, V600E); test: B-Raf(V600E) kinase assay (pyruvate kinase/lactate dehydrogenase coupled, MEK1 substrate); details: 1 h preincubation at 30° C., ATP 0.2 mM; read-out: B-Raf V600E Enzyme Assay, biochemical IC50
Chain of B-Raf(V600E) kinase (SEQ ID NO:11) (P15056 with tags, fused parts or gaps V600E): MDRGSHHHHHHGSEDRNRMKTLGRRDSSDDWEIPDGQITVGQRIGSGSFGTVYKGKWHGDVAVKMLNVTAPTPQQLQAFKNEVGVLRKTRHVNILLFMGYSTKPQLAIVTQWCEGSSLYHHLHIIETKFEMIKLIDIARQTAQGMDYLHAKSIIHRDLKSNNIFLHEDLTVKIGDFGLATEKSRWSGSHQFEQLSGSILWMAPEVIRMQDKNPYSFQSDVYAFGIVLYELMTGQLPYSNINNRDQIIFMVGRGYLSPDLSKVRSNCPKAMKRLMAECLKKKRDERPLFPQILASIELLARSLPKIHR
Description: B-Raf(V600E) Kinase Assay
The activity of B-Raf(V600E) kinase (SEQ ID NO:11) was determined by following the formation of ADP from the reaction through coupling with the pyruvate kinase/lactate dehydrogenase system (e.g., Schindler, et al. Science (2000) 289, 1938-1942). In this assay, the oxidation of NADH (thus the decrease at A340nm) was continuously monitored spectrophotometrically. The reaction mixture (100 μl) contained B-Raf(V600E) kinase (0.34 nM nominal concentration, SEQ ID NO:11), unphosphorylated, full-length MEK1 (42 nM, SEQ ID NO:12), MgCl2 (13 mM), pyruvate kinase (3.5 units), lactate dehydrogenase (5.5 units), phosphoenolpyruvate (1 mM), and NADH (0.28 mM), in 60 mM Tris buffer, containing 0.13% octyl-glucoside and 3.5% DMSO concentration at pH 7.5. The test compounds were incubated with the reaction mixture at 30° C. for 1 h. The reaction was initiated by adding ATP (0.2 mM, final concentration). The absorption at 340 nm was continuously monitored for 3 h at 30° C. on a Polarstar Optima plate reader (BMG). The reaction rate was calculated using the 0.5 h to 1.5 h time frame. Percent inhibition was obtained by comparison of reaction rate with that of a control (i.e. with no test compound). IC50 values were calculated from a series of percent inhibition values determined at a range of inhibitor concentrations using software routines as implemented in the GraphPad Prism software package.

Abl kinase (SEQ ID NO:1) = molecular target: T2, Abl kinase (SEQ ID NO:1) (Homo sapiens, UniProt P00519); test: Abl kinase assay (pyruvate kinase/lactate dehydrogenase coupled, ADP production); details: 2 h preincubation at 30° C., ATP 500 μM; read-out: Abl Enzyme Assay, biochemical IC50
T2 construct: purchased deCode Genetics
T2 sequence (P00519 with tags, fused parts or gaps): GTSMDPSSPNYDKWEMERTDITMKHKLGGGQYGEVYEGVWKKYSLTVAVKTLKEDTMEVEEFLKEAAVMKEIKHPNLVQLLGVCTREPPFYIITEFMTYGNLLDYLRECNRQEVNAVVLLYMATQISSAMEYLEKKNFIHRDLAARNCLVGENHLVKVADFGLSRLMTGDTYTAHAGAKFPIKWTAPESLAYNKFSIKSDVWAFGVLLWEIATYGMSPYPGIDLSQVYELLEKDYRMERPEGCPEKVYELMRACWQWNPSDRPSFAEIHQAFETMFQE
Description: Abl Kinase (SEQ ID NO:1) Assay
Activity of Abl kinase (SEQ ID NO:1) was determined by following the production of ADP from the kinase reaction through coupling with the pyruvate kinase/lactate dehydrogenase system (e.g., Schindler, et al. Science (2000) 289, 1938-1942). In this assay, the oxidation of NADH (thus the decrease at A340nm) was continuously monitored spectrophometrically. The reaction mixture (100 μl) contained Abl kinase (1 nM. Abl from deCode Genetics), peptide substrate (EAIYAAPFAKKK. 0.2 mM), MgCl2 (10 mM), pyruvate kinase (4 units), lactate dehydrogenase (0.7 units), phosphoenol pyruvate (1 mM), and NADH (0.28 mM) in 90 mM Tris buffer containing 0.2% octyl-glucoside and 3.5% DMSO, pH 7.5. Test compounds were incubated with Abl (SEQ ID NO:1) and other reaction reagents at 30° C. for 2 h before ATP (500 μM) was added to start the reaction. The absorption at 340 nm was monitored continuously for 2 hours at 30° C. on Polarstar Optima plate reader (BMG). The reaction rate was calculated using the 1.0 to 2.0 h time frame. Percent inhibition was obtained by comparison of reaction rate with that of a control (i.e. with no test compound). IC50 values were calculated from a series of percent inhibition values determined at a range of inhibitor concentrations using software routines as implemented in the GraphPad Prism software package.

[3] = molecular target: T3, BaF3 cells transfected with T315I p210 BCR-Abl (Homo sapiens, UniProt P00519, T315I, cells depend on it); test: Ba/F3 p210 T315I whole cell proliferation assay (Cell Titer Blue, 72 hours); format: cell-based; details: 72 hours incubation; read-out: Ba/F3 p210 T315I whole cell proliferation assay, antiproliferation IC50
T3 construct: fused on or other part: P11274 (Breakpoint cluster region protein)
Description: (§1) BaF3 cells (parental or transfected with the following: wild type p210 BCR-Abl and T315I p210 BCR-Abl was obtained from Professor Richard Van Etten (New England Medical Center, Boston, Mass.). Briefly, cells were grown in RPMI 1640 supplemented with 10% characterized fetal bovine serum (HyClone, Logan, Utah) at 37 degrees Celsius, 5% CO2, 95% humidity. Cells were allowed to expand until reaching 80% saturation at which point they were subcultured or harvested for assay use.
(§2) A serial dilution of test compound was dispensed into a 96 well black clear bottom plate (Corning, Corning, N.Y.). For each cell line, three thousand cells were added per well in complete growth medium. Plates were incubated for 72 hours at 37 degrees Celsius, 5% CO2, 95% humidity. At the end of the incubation period Cell Titer Blue (Promega, Madison, Wis.) was added to each well and an additional 4.5 hour incubation at 37 degrees Celsius, 5% CO2, 95% humidity was performed. Plates were then read on a BMG Fluostar Optima (BMG, Durham, N.C.) using an excitation of 544 nm and an emission of 612 nm. Data was analyzed using Prism software (Graphpad, San Diego, Calif.) to calculate IC50's.

[4] = molecular target: T4, BaF3 cells transfected with wild type p210 BCR-Abl (Homo sapiens, UniProt P00519); test: Ba/F3 p210 whole cell proliferation assay (Cell Titer Blue, 72 hours); format: cell-based; details: 72 hours incubation; read-out: Ba/F3 p210 whole cell proliferation assay, antiproliferation IC50
T4 construct: fused on or other part: P11274 (Breakpoint cluster region protein)
Description: as §1, §2

[5] = molecular target: T5, T315I Abl kinase (SEQ ID NO:2) (Homo sapiens, UniProt P00519, T315I); test: T315I Abl kinase assay (pyruvate kinase/lactate dehydrogenase coupled); details: 1 h preincubation at 30° C., ATP 500 μM; read-out: Abl T315l Enzyme Assay, biochemical IC50
T5 construct: purchased deCode Genetics
T5 sequence (P00519 with tags, fused parts or gaps T315I): T2 sequence (P00519 with tags, fused parts or gaps) with T94I
Description: Abl Kinase (SEQ ID NO:2) Assay
Activity of T315I Abl kinase (SEQ ID NO:2) was determined by following the production of ADP from the kinase reaction through coupling with the pyruvate kinase/lactate dehydrogenase system (e.g., Schindler, et al. Science (2000) 289, 1938-1942). In this assay, the oxidation of NADH (thus the decrease at A340nm) was continuously monitored spectrophometrically. The reaction mixture (100 μl) contained Abl kinase (4.4 nM. […] Abl from deCode Genetics), peptide substrate (EAIYAAPFAKKK, 0.2 mM), MgCl2 (10 mM), pyruvate kinase (4 units), lactate dehydrogenase (0.7 units), phosphoenol pyruvate (1 mM), and NADH (0.28 mM) in 90 mM Tris buffer containing 0.2% octyl-glucoside and 1% DMSO, pH 7.5. Test compounds were incubated with T315I Abl (SEQ ID NO:2) and other reaction reagents at 30° C. for 1 h before ATP (500 μM) was added to start the reaction. The absorption at 340 nm was monitored continuously for 2 hours at 30° C. on Polarstar Optima plate reader (BMG). The reaction rate was calculated using the 1.0 to 2.0 h time frame. Percent inhibition was obtained by comparison of reaction rate with that of a control (i.e. with no test compound). IC50 values were calculated from a series of percent inhibition values determined at a range of inhibitor concentrations using software routines as implemented in the GraphPad Prism software package.

Compound	IC50 [1]	IC50 [2]	IC50 (Abl kinase (SEQ ID NO:1))	GI50 [3]	GI50 [4]	IC50 [5]
CCn1ncc(NC(=O)Nc2ccc(Oc3ccnc(-c4cnn(C)c4)c3)cc2F)c1-c1ccccc1 [Example 22, 1-(1-ethyl-5-phenyl-1H-pyrazol-4-yl)-3-(2-fluoro-4-(2-(1-methyl-1H-pyrazol-4-yl)pyridin-4-yloxy)phenyl)urea hydrochloride]		< 10 µM	< 1 µM			
CCCn1cc(-c2cc(Oc3ccc(NC(=O)Nc4cc(CC)nn4-c4cccc(C#N)c4)c(F)c3)ccn2)cn1 [Example 15, 1-(1-(3-cyanophenyl)-S-ethyl-1H-pyrazol-5-yl)-3-(2-fluoro-4-(2-(1-propyl-1H-pyrazol-4-yl)pyridin-4-yloxy)phenyl)urea]	< 1 µM	< 1 µM	< 0.1 µM	< 0.1 µM	< 0.1 µM	

Now from value to molecule:

IC50 [1]	IC50 [2]	IC50 (Abl kinase (SEQ ID NO:1))	GI50 [3]	GI50 [4]	IC50 [5]	Compound
< 1 µM	< 1 µM	< 0.1 µM	< 0.1 µM	< 0.1 µM		CCc1cc(NC(=O)Nc2ccc(Oc3ccnc(-c4cnn(CC)c4)c3)cc2F)n(-c2cccc(C#N)c2)n1 [Example 18, 1-(1-(3-cyanophenyl)-3-ethyl-1H-pyrazol-5-yl)-3-(4-(2-(1-ethyl-1H-pyrazol-4-yl)pyridin-4-yloxy)-2-fluorophenyl)urea]
	< 10 µM	< 0.1 µM	< 1 µM	< 0.1 µM		CC(C)n1ncc(NC(=O)Nc2ccc(Oc3ccnc(-c4cnn(C)c4)c3)cc2F)c1-c1ccccc1 [Example 20, 1-(2-fluoro-4-(2-(1-methyl-1H-pyrazol-4-yl)pyridin-4-yloxy)phenyl)-3-(1-isopropyl-5-phenyl-1H-pyrazol-4-yl)urea]
	< 10 µM	< 0.1 µM				CCn1cc(NC(=O)Nc2ccc(Oc3ccnc(-c4cnn(C)c4)c3)cc2F)c(-c2ccccc2)n1 [Example 23, 1-(1-ethyl-3-phenyl-1H-pyrazol-4-yl)-3-(2-fluoro-4-(2-(1-methyl-1H-pyrazol-4-yl)pyridin-4-yloxy)phenyl)urea hydrochloride]
< 0.1 µM		< 0.1 µM	< 0.1 µM	< 0.1 µM	< 0.1 µM	Cn1cc(-c2cc(Oc3ccc(NC(=O)Nc4cc(C(C)(C)C)nn4-c4ccccc4)c(F)c3)ccn2)cn1 [Example 1, 1-(3-t-butyl-1-phenyl-1H-pyrazol-5-yl)-3-(2-fluoro-4-(2-(1-methyl-1H-pyrazol-4-yl)pyridin-4-yloxy)phenyl)urea]
